“And” between values parts separate entries of the source, which are not always exact repeats. Identical values can stand only once. Toxic doses and inconclusive results are not listed. Rule for the calls: active = survival T/C of 150% or more; inactive = T/C below 125% in these data.
Test system: P388 leukemia ip, CD2F1 mice, survival T/C
Assay: NCI In Vivo Anticancer Drug Screen. Data for tumor model P388 Leukemia (intraperitoneal) in CD2F1 (CDF1) mice
Conditions: endpoint: median survival time, higher = longer survival
Method in brief: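 Mice carrying the transplanted tumor received test compound or vehicle. Survival was recorded in each group, and the value is the treated-group measurement divided by that of the vehicle-treated control group.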

[1] = dose: 100.0 mg/kg/injection, schedule: Q04DX002 (ip), vehicle: saline
[2] = dose: 200.0 mg/kg/injection, schedule: Q04DX002 (ip), vehicle: saline
[3] = dose: 400.0 mg/kg/injection, schedule: Q04DX002 (ip), vehicle: saline
[4] = dose: 50.0 mg/kg/injection, schedule: Q01DX009 (ip), vehicle: saline with Tween-80
[5] = dose: 100.0 mg/kg/injection, schedule: Q01DX009 (ip), vehicle: saline with Tween-80
[6] = dose: 200.0 mg/kg/injection, schedule: Q01DX009 (ip), vehicle: saline with Tween-80
[7] = dose: 50.0 mg/kg/injection, schedule: Q01DX005 (ip), vehicle: saline
[8] = dose: 100.0 mg/kg/injection, schedule: Q01DX005 (ip), vehicle: saline
[9] = dose: 60.0 mg/kg/injection, schedule: Q01DX005 (ip), vehicle: Klucel (hydroxypropylcellulose) (HPC)
[10] = dose: 120.0 mg/kg/injection, schedule: Q01DX005 (ip), vehicle: Klucel (hydroxypropylcellulose) (HPC)
[11] = dose: 12.5 mg/kg/injection, schedule: Q01DX005 (ip), vehicle: saline
[12] = dose: 25.0 mg/kg/injection, schedule: Q01DX005 (ip), vehicle: saline
[13] = dose: 25.0 mg/kg/injection, schedule: Q01DX009 (ip), vehicle: saline with Tween-80
[14] = dose: 100.0 mg/kg/injection, schedule: Q04DX002 (ip), vehicle: saline with Tween-80
[15] = dose: 200.0 mg/kg/injection, schedule: Q04DX002 (ip), vehicle: saline with Tween-80
[16] = dose: 400.0 mg/kg/injection, schedule: Q04DX002 (ip), vehicle: saline with Tween-80

Measured: T/C

OCCN(CCO)c1nc(N(CCO)CCO)c(N2CCCCC2)c(N2CCCCC2)n1
inactive: [1] 104 % of control | [2] 105 % of control | [3] 98 % of control

COc1cccc(N(CCO)C2CCCCC2)c1
inactive: dose: 100.0 mg/kg/injection, schedule: Q04DX003 (ip), vehicle: saline with Tween-80 100 % of control | dose: 200.0 mg/kg/injection, schedule: Q04DX003 (ip), vehicle: saline with Tween-80 90 % of control | dose: 400.0 mg/kg/injection, schedule: Q04DX003 (ip), vehicle: saline with Tween-80 88 % of control

CC(=O)C(/C=N/C(N)=O)=C(/C)O
inactive: dose: 50.0 mg/kg/injection, schedule: Q04DX003 (ip), vehicle: saline 100 % of control | dose: 100.0 mg/kg/injection, schedule: Q04DX003 (ip), vehicle: saline 100 % of control | dose: 200.0 mg/kg/injection, schedule: Q04DX003 (ip), vehicle: saline 110 % of control

COc1cc(OC)c(NC(=O)O/N=C(\c2ccccc2)C(O)c2ccccc2)cc1Cl (centres undefined)
inactive: [4] 91 % of control | [5] 91 % of control | [6] 90 % of control

CN(C)CCC(=O)C(=Cc1ccccc1)C(=O)CCN(C)C
inactive: [7] 114 % of control | [8] 99 % of control | dose: 200.0 mg/kg/injection, schedule: Q01DX005 (ip), vehicle: saline 101 % of control

COc1cc(NS(=O)(=O)c2ccccc2)c2nc3ccc(Cl)cc3nc2c1
inactive: [9] 96 % of control | [10] 90 % of control | dose: 240.0 mg/kg/injection, schedule: Q01DX005 (ip), vehicle: Klucel (hydroxypropylcellulose) (HPC) 89 % of control

CC1=CN2C3=NCCN3C3=[N+](C)CCN3C2C=C1 (centres undefined)
inactive: [11] 104 % of control | [12] 101 % of control | [7] 100 % of control and 112 % of control

C=CCNC(=O)/C(C)=C(/C)c1ccccc1
inactive: dose: 100.0 mg/kg/injection, schedule: Q01DX001 (ip), vehicle: Klucel (hydroxypropylcellulose) (HPC) 100 % of control | dose: 200.0 mg/kg/injection, schedule: Q01DX001 (ip), vehicle: Klucel (hydroxypropylcellulose) (HPC) 104 % of control | dose: 400.0 mg/kg/injection, schedule: Q01DX001 (ip), vehicle: Klucel (hydroxypropylcellulose) (HPC) 99 % of control

c1cnc2c(c1)n[n+]1[n-]c3ccccc3n21
inactive: [9] 96 % of control | [10] 91 % of control

Nc1[nH]c(=O)[nH]c(=O)c1N
inactive: [4] 100 % of control | [5] 100 % of control | [6] 100 % of control

CC1=C(C)C(=O)OC(C(C)(O)C2(O)CCC3(O)C4CC(Cl)C5(O)C(O)C=CC(=O)C5(C)C4CCC32C)C1 (centres undefined)
inactive: dose: 10.0 mg/kg/injection, schedule: Q01DX005 (ip), vehicle: saline + alcohol 106 % of control | dose: 20.0 mg/kg/injection, schedule: Q01DX005 (ip), vehicle: saline + alcohol 108 % of control | dose: 25.0 mg/kg/injection, schedule: Q01DX005 (ip), vehicle: saline + alcohol 104 % of control | dose: 40.0 mg/kg/injection, schedule: Q01DX005 (ip), vehicle: saline + alcohol 112 % of control | dose: 50.0 mg/kg/injection, schedule: Q01DX005 (ip), vehicle: saline + alcohol 100 % of control and 104 % of control | dose: 80.0 mg/kg/injection, schedule: Q01DX005 (ip), vehicle: saline + alcohol 117 % of control | dose: 100.0 mg/kg/injection, schedule: Q01DX005 (ip), vehicle: saline + alcohol 104 % of control (2×) and 120 % of control | dose: 200.0 mg/kg/injection, schedule: Q01DX005 (ip), vehicle: saline + alcohol 99 % of control and 109 % of control and 111 % of control

CC(NCCc1ccccc1)C1CCOC1=O (centres undefined)
inactive: dose: 6.25 mg/kg/injection, schedule: Q01DX009 (ip), vehicle: saline 98 % of control | dose: 12.5 mg/kg/injection, schedule: Q01DX009 (ip), vehicle: saline 97 % of control and 102 % of control | dose: 25.0 mg/kg/injection, schedule: Q01DX009 (ip), vehicle: saline 103 % of control and 109 % of control | dose: 50.0 mg/kg/injection, schedule: Q01DX009 (ip), vehicle: saline 100 % of control and 97 % of control

CCNc1ccc2ccccc2c1N=Nc1ccc(N=Nc2ccccc2)cc1
inactive: [13] 90 % of control | [4] 90 % of control and 94 % of control | [5] 95 % of control | [6] 100 % of control

CC(C)c1cc(C=C2C(=O)c3ccccc3C2=O)cc(C(C)C)c1O
inactive: [1] 100 % of control | [2] 100 % of control | [3] 97 % of control

CCC(C(=O)O)C1(C(=O)O)CCCCCC1 (centres undefined)
inactive: dose: 100.0 mg/kg/injection, schedule: Q01DX001 (ip), vehicle: saline with Tween-80 101 % of control | [14] 98 % of control | dose: 200.0 mg/kg/injection, schedule: Q01DX001 (ip), vehicle: saline with Tween-80 106 % of control | [15] 98 % of control | dose: 400.0 mg/kg/injection, schedule: Q01DX001 (ip), vehicle: saline with Tween-80 108 % of control | [16] 109 % of control

CNc1ncnc2ccccc12
inactive: [13] 100 % of control | [4] 95 % of control | [5] 89 % of control

COc1cc2c(c(OC)c1OC)-c1ccc(=O)c(OC)cc1[C@@H](N(C)C=O)CC2
inactive: dose: 2.5 mg/kg/injection, schedule: Q01DX009 (ip), vehicle: Klucel (hydroxypropylcellulose) (HPC) 105 % of control | dose: 5.0 mg/kg/injection, schedule: Q01DX009 (ip), vehicle: Klucel (hydroxypropylcellulose) (HPC) 112 % of control | dose: 10.0 mg/kg/injection, schedule: Q01DX009 (ip), vehicle: Klucel (hydroxypropylcellulose) (HPC) 100 % of control | dose: 20.0 mg/kg/injection, schedule: Q01DX009 (ip), vehicle: Klucel (hydroxypropylcellulose) (HPC) 114 % of control | dose: 40.0 mg/kg/injection, schedule: Q01DX009 (ip), vehicle: Klucel (hydroxypropylcellulose) (HPC) 114 % of control

COc1cc(NCCN(CC(C)C)C2CCCC2)c2ncccc2c1
inactive: [11] 100 % of control and 106 % of control | [12] 100 % of control and 114 % of control | [7] 101 % of control and 103 % of control and 106 % of control | [8] 121 % of control and 90 % of control and 96 % of control

Cc1ccc(S(=O)(=O)Nc2ccccc2N(CCN(CCN(c2ccccc2NS(=O)(=O)c2ccc(C)cc2)S(=O)(=O)c2ccc(C)cc2)S(=O)(=O)c2ccc(C)cc2)S(=O)(=O)c2ccc(C)cc2)cc1
inactive: [4] 90 % of control | [5] 100 % of control | [6] 90 % of control

COC(=O)C1=C/C=C\CN(C(c2ccccc2)c2ccccc2)/C=C\1C(=O)OC
inactive: dose: 50.0 mg/kg/injection, schedule: Q01DX009 (ip), vehicle: suspension in saline 100 % of control | dose: 100.0 mg/kg/injection, schedule: Q01DX001 (ip), vehicle: saline 100 % of control | dose: 100.0 mg/kg/injection, schedule: Q01DX009 (ip), vehicle: suspension in saline 89 % of control | dose: 200.0 mg/kg/injection, schedule: Q01DX001 (ip), vehicle: saline 100 % of control | dose: 200.0 mg/kg/injection, schedule: Q01DX009 (ip), vehicle: suspension in saline 95 % of control | dose: 400.0 mg/kg/injection, schedule: Q01DX001 (ip), vehicle: saline 97 % of control | dose: 400.0 mg/kg/injection, schedule: Q01DX009 (ip), vehicle: suspension in saline 104 % of control

COC(=O)C(=CNC(N)=O)C(=O)OC
inactive: dose: 60.0 mg/kg/injection, schedule: Q01DX005 (ip), vehicle: saline with Tween-80 96 % of control | dose: 120.0 mg/kg/injection, schedule: Q01DX005 (ip), vehicle: saline with Tween-80 100 % of control | dose: 240.0 mg/kg/injection, schedule: Q01DX005 (ip), vehicle: saline with Tween-80 94 % of control

C=C1CC[C@H]2C(C)=CC[C@H]3C(=C)C(=O)O[C@@H]3[C@@H]12
inactive: dose: 5.0 mg/kg/injection, schedule: Q01DX009 (ip), vehicle: saline with Tween-80 90 % of control | dose: 10.0 mg/kg/injection, schedule: Q01DX009 (ip), vehicle: saline with Tween-80 91 % of control | dose: 20.0 mg/kg/injection, schedule: Q01DX009 (ip), vehicle: saline with Tween-80 97 % of control | dose: 40.0 mg/kg/injection, schedule: Q01DX009 (ip), vehicle: saline with Tween-80 95 % of control | [14] 107 % of control | [15] 112 % of control | [16] 102 % of control

C=CCNC(=O)/C(C)=C(\C)c1ccccc1
inactive: dose: 50.0 mg/kg/injection, schedule: Q04DX002 (ip), vehicle: Klucel (hydroxypropylcellulose) (HPC) 102 % of control | dose: 100.0 mg/kg/injection, schedule: Q04DX002 (ip), vehicle: Klucel (hydroxypropylcellulose) (HPC) 102 % of control | dose: 200.0 mg/kg/injection, schedule: Q04DX002 (ip), vehicle: Klucel (hydroxypropylcellulose) (HPC) 103 % of control
